According to ChEMBL document CHEMBL4304800, “C4-Phenylthio β-lactams: Effect of the chirality of the β-lactam ring on antimicrobial activity” (2019):

Key:
Type in all cases: functional
Details in all cases: 336 h
[1] = system: Mycobacterium tuberculosis; assay: Antitubercular activity against multi-drug resistant Mycobacterium tuberculosis K26b00MR after 14 days in presence of middlebrook 7H9/BSA medium by eleven fold serial dilution method
[2] = system: Mycobacterium tuberculosis; assay: Antitubercular activity against multi-drug resistant Mycobacterium tuberculosis K25b00MR after 14 days in presence of middlebrook 7H9/BSA medium by eleven fold serial dilution method
[3] = system: Mycobacterium tuberculosis; assay: Antitubercular activity against multi-drug resistant Mycobacterium tuberculosis K22b00MR after 14 days in presence of middlebrook 7H9/BSA medium by eleven fold serial dilution method
[4] = system: Mycobacterium tuberculosis; assay: Antitubercular activity against multi-drug resistant Mycobacterium tuberculosis K29b00MR after 14 days in presence of middlebrook 7H9/BSA medium by eleven fold serial dilution method

| Structure (SMILES) | MIC [1] [µg/mL] | MIC [2] [µg/mL] | MIC [3] [µg/mL] | MIC [4] [µg/mL] |
| --- | --- | --- | --- | --- |
| C[C@@H](NC(=O)N1C(=O)C[C@@H]1Sc1ccc(F)cc1F)c1ccccc1 | 25 | 12.5 | 12.5 | 12.5 |
| C[C@H](NC(=O)N1C(=O)C[C@H]1Sc1ccc(F)cc1F)c1ccccc1 | 25 to 50 | 12.5 to 25 | 25 | 25 |
| C[C@H](NC(=O)N1C(=O)C[C@@H]1Sc1ccc(C(F)(F)F)cc1)c1ccccc1 | 12.5 | 12.5 to 25 | 12.5 | 12.5 |
| C[C@@H](NC(=O)N1C(=O)C[C@H]1Sc1ccc(F)cc1F)c1ccccc1 | 12.5 to 25 | 12.5 | 12.5 | 12.5 |
| O=C1CC(Sc2ccc(C(F)(F)F)cc2)N1C(=O)NCc1ccccc1 (racemic) | 12.5 | 25 | 12.5 | 25 |
| NNC(=O)c1ccncc1 [ISONIAZID] | > 1 | 1.3 | 0.6 | ≥ 1 |
